Test results as given in US8192962B2, “Processes for detecting toxic substances” (Daikin Industries, Ltd., priority 2001, dated 2012).

Tested on: DNA repair protein genes
Experiment: DNA chip mRNA expression in yeast, DNA repair protein genes (Table 3)
Format: cell-based, Saccharomyces cerevisiae S288C
Settings: incubated two hours, concentrations as in the 1st table
Summary of the method: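 Cells were grown at 25° C. in YPD, treated at logarithmic phase for 2 h with a chemical at a concentration inhibiting growth but not causing death, and compared with untreated cultures. Labeled cDNA was hybridized to a DNA chip carrying all yeast genes, and the expression ratio was taken from scanner fluorescence.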

Measured: The level of expressed mRNA in the presence of chemical substance/The level of expressed mRNA in the absence of chemical substance

COc1cc(CNC(=O)CCCCC=CC(C)C)ccc1O [(12), 8-methyl-N-vanillyl-6-nonenamide]
0.7: yeast gene YCR014C | yeast gene YPL022W | yeast gene YPR025C
1.0: yeast gene YAL015C | yeast gene YDR054C | yeast gene YEL019C | yeast gene YIL153W | yeast gene YJL026W
0.8: yeast gene YBL019W | yeast gene YDL017W | yeast gene YGL249W | yeast gene YMR072W | yeast gene YNL213C | yeast gene YNL261W | yeast gene YOL043C
1.6: yeast gene YLR103C
0.4: yeast gene YER162C
0.6: yeast gene YLR288C | yeast gene YMR284W
1.3: yeast gene YDL059C | yeast gene YGL058W | yeast gene YGR231C | yeast gene YIR002C | yeast gene YKL145W
0.5: yeast gene YBR272C | yeast gene YMR035W
4.3: yeast gene YFL014W
1.1: yeast gene YDL200C | yeast gene YEL037C | yeast gene YIL072W | yeast gene YJR052W
1.2: yeast gene YGL091C | yeast gene YHR164C | yeast gene YIL036W | yeast gene YOR386W
0.9: yeast gene YAR007C | yeast gene YBR073W | yeast gene YDR369C | yeast gene YGL163C | yeast gene YGR180C | yeast gene YGR258C | yeast gene YIL143C | yeast gene YJR046W | yeast gene YLR233C | yeast gene YML032C | yeast gene YML058W | yeast gene YNL312W | yeast gene YOR005C | yeast gene YPL164C | yeast gene YPL194W
1.4: yeast gene YGL127C | yeast gene YMR096W | yeast gene YNL250W
